One experiment relates to Trypanosoma cruzi. Kind of experiment: Antitrypanosomal activity against Trypanosoma cruzi Tulahuen CL2 s-galactosidase strain assessed as reduction in parasite growth after 3 days by fluorometrically. Type of experiment: functional, organism-based.
The next experiment relates to Leishmania infantum. Kind of experiment: Antileishmanial activity against Leishmania infantum MHOM/MA/67/ITMAP263 intracellular amastigotes assessed as reduction in parasite growth after 3 days by fluorometrically. Type of experiment: functional, organism-based.
Experiment [1] has as its system Trypanosoma brucei brucei. Kind of experiment: Antitrypanosomal activity against suramin sensitive Trypanosoma brucei brucei Lister 427 assessed as reduction in parasite growth after 3 days by fluorometrically. Type of experiment: functional, organism-based. The note with it: Lister 427, 72 h.
Experiment [2] can be described thus: Inhibition of Trypanosoma vivax Inosine-adenosine-guanosine-nucleoside hydrolase.
Another experiment deals with Plasmodium falciparum. Kind of experiment: Antiparasitic activity against chloroquine-sensitive Plasmodium falciparum Ghana assessed as reduction in parasite growth after 3 days by fluorimetry. Type of experiment: functional, organism-based.
Experiment [3] in a line: Inhibition of human purine nucleoside phosphorylase.
The nature of experiment [4]: Cytotoxicity against human MRC5 SV2 cells after 48 hrs. Type of experiment: cell-based. The note with it: MRC5, 48 h.
Experiment [5] in a line: Inhibition of Trypanosoma brucei brucei Lister 427 Nucleoside transporter P1 by scintillation counting.
Experiment [6] is described as follows: Inhibition of Trypanosoma brucei brucei inosine-adenosine-guanosine nucleoside hydrolase (IAG-NH).
Experiment [7] is described as follows: Inhibition of Trypanosoma brucei brucei Inosine guanosine nucleoside hydrolase.
Experiment [8] concerns Trypanosoma brucei rhodesiense. Kind of experiment: Antitrypanosomal activity against Trypanosoma brucei rhodesiense assessed as reduction in parasite growth after 3 days by fluorometrically. Type of experiment: functional, organism-based. The note with it: 72 h.
Experiment [9] concerns Trypanosoma brucei brucei. Kind of experiment: Antitrypanosomal activity against suramin sensitive Trypanosoma brucei brucei Lister 427 assessed as parasite killing at 10 uM after 48 hrs. Type of experiment: functional.
In experiment [10] the test system is Trypanosoma brucei brucei. Kind of experiment: Antitrypanosomal activity against suramin sensitive Trypanosoma brucei brucei Lister 427 infected in Swiss Webster mouse assessed as parasite clearance in blood at 50 mg/kg treated orally for 1 day followed by intraperitoneally for 4 days measured on 21 days post-infection. Type of experiment: functional, organism-based. On the set-up: dose 50 mg/kg.

Experiment [11] concerns Trypanosoma brucei brucei. Kind of experiment: Antitrypanosomal activity against suramin sensitive Trypanosoma brucei brucei Lister 427 infected in Swiss Webster mouse assessed as parasite clearance in blood at 50 mg/kg treated orally for 1 day followed by intraperitoneally for 4 days measured on 10 days post-infection. On the set-up: dose 50 mg/kg. Type of experiment: functional, organism-based.

The subject of experiment [12] is Trypanosoma brucei brucei. Nature of the experiment: Antitrypanosomal activity against suramin sensitive Trypanosoma brucei brucei Lister 427 assessed as reduction in viability and mortality up to 20 uM over 7 hrs by in vitro lysis assay. Type of experiment: functional, organism-based.
Experiment [13] is described as follows: Inhibition of Trypanosoma brucei brucei Lister 427 Nucleoside/nucleobase transporter P2 transporter by scintillation counting.
In experiment [14] the test system is Trypanosoma brucei brucei. Nature of the experiment: Antitrypanosomal activity against suramin sensitive Trypanosoma brucei brucei Lister 427 assessed as parasite killing at 0.25 uM within 5 hrs. Type of experiment: functional, organism-based.
Experiment [15] deals with Trypanosoma brucei brucei. Nature of the experiment: Antitrypanosomal activity against suramin sensitive Trypanosoma brucei brucei Lister 427 infected in Swiss Webster mouse assessed as parasite clearance in blood at 50 mg/kg treated orally for 1 day followed by intraperitoneally for 4 days measured on 14 days post-infection. Type of experiment: functional, organism-based. On the set-up: dose 50 mg/kg.

The test system of experiment [16] is Trypanosoma brucei brucei. Kind of experiment: Antitrypanosomal activity against suramin sensitive Trypanosoma brucei brucei Lister 427 infected in Swiss Webster mouse assessed as mouse survival at 50 mg/kg treated 1 day po and for 4 days in ip measured on 21 days after infectio. Type of experiment: functional.
The subject of experiment [17] is Trypanosoma brucei brucei. Kind of experiment: Antitrypanosomal activity against suramin sensitive Trypanosoma brucei brucei Lister 427 assessed as parasite killing at 1 uM after 24 hrs. Type of experiment: functional, organism-based.
The nature of experiment [18]: Inhibition of Trypanosoma brucei brucei Lister 427 H2 transporter by scintillation counting.
Experiment [19] has as its system Trypanosoma brucei brucei. Kind of experiment: Antitrypanosomal activity against suramin sensitive Trypanosoma brucei brucei Lister 427 assessed as reduction in parasite growth at > 5 uM by Alamar blue assay. Type of experiment: functional, organism-based. For orientation: The colour change of resazurin is a common sign of viable cells or microbes.

pIC50, pKi: −log10 of the molar value. The source made the active and inactive calls.

Consider `OC[C@@H]1[C@@H](O)[C@@H](O)CN1Cc1cccc2nccnc12`, for which the outcome in the experiment with Trypanosoma cruzi, in the experiment with Leishmania infantum and with Plasmodium falciparum was inactive. The pIC50 in [1] is less than 4.19. Further, the negative-log Ki (pKi) in experiment [2] was 6.85; in experiment [3], less than 3.00.
As for `OC[C@@H]1[C@@H](O)[C@@H](O)CN1Cc1cccc2cncnc12`, the outcome in the experiment on Trypanosoma cruzi, with Leishmania infantum and in the experiment with Plasmodium falciparum was inactive. In addition, the pIC50 in [1] and in [4] was less than 4.19 each time. Also, the figures for the pKi in [2] and in experiment [3] were 7.24 and less than 3.00, respectively.
For the compound `Nc1ncnc2c(CN3C[C@H](O)[C@H](O)[C@H]3CO)cccc12`, the result in the experiment with Trypanosoma cruzi, in the experiment on Leishmania infantum and in the experiment with Plasmodium falciparum was inactive. Further, in experiment [1], the pIC50 was less than 4.19. Further, the pKi is 7.82 in experiment [2] and less than 3.00 in [3].
Consider `O=c1[nH]cnc2c(CN3C[C@H](O)[C@H](O)[C@H]3CO)cccc12`, for which the result in the experiment on Trypanosoma cruzi, in the experiment on Leishmania infantum and in the experiment with Plasmodium falciparum was inactive. The pIC50 in experiment [1] is less than 4.19. The figures for the pKi in experiment [2] and in [3] were 6.96 and less than 3.00, respectively.
For `OC[C@@H]1[C@@H](O)[C@@H](O)CN1Cc1c[nH]c2ccccc12`, the outcome in the experiment with Trypanosoma cruzi, with Leishmania infantum and with Plasmodium falciparum was inactive. In [1], the pIC50 was less than 4.19. Further, the pKi in experiment [2] was 4.92; in experiment [3], less than 3.10.
For the compound `Nc1ccnc2c(CN3C[C@H](O)[C@H](O)[C@H]3CO)cccc12`, the result in the experiment on Trypanosoma cruzi, in the experiment with Leishmania infantum and with Plasmodium falciparum was inactive. The pIC50 in experiment [1] was less than 4.19. Also, the pKi in experiment [2] is 7.30; in experiment [3], less than 3.00.
As to `OC[C@@H]1[C@@H](O)[C@@H](O)CN1Cc1csc2cncnc12`, the result in the experiment on Trypanosoma cruzi, in the experiment on Leishmania infantum and with Plasmodium falciparum was inactive. Besides, the pIC50 in experiment [1] was less than 4.19. The pKi in [2] was 7.38; in experiment [3], less than 3.00.
For `COc1ccnc2c(CN3C[C@H](O)[C@H](O)[C@H]3CO)cccc12`, the outcome in the experiment with Trypanosoma cruzi, in the experiment with Leishmania infantum and in the experiment on Plasmodium falciparum was inactive. For the same compound, the pIC50 in experiment [1] and in [4] was less than 4.19 each time. Moreover, the pKi in experiment [2] is 7.54; in experiment [3] it was less than 3.00.
For `Nc1nc2c(CN3C[C@H](O)[C@H](O)[C@H]3CO)cccc2s1`, the result with Trypanosoma cruzi, with Leishmania infantum and in the experiment on Plasmodium falciparum was inactive. Moreover, the pKi in experiment [5] is 3.09; in experiment [2], 7.40; in experiment [6], 6.25; in experiment [7], 4.85; in experiment [3], less than 3.00. The pIC50 in experiment [1] and in experiment [4] was less than 4.19 each time.
As for `O=c1cc[nH]c2c(CN3C[C@H](O)[C@H](O)[C@H]3CO)cccc12`, the outcome in the experiment with Trypanosoma cruzi, with Leishmania infantum and in the experiment with Plasmodium falciparum was inactive. The pIC50 in experiment [1] was less than 4.19. The pKi in experiment [2] was 4.88; in [3], less than 3.30.
For `O=c1[nH]cnc2c(CN3C[C@H](O)[C@H](O)[C@H]3CO)csc12`, the outcome in the experiment with Trypanosoma cruzi, in the experiment on Leishmania infantum and with Plasmodium falciparum was inactive. Besides, the pKi in [5] was 3.52; in [2] it was 7.70; in experiment [6], 6.72; in [7], 3.92; in experiment [3], 4.11. In addition, the pIC50 in experiment [1] was less than 4.47; in experiment [4] it was less than 4.19.
Take `O=c1[nH]cnc2c([C@@H]3N[C@H](CO)[C@@H](O)[C@H]3O)c[nH]c12` [FORODESINE]: the outcome with Trypanosoma cruzi, with Leishmania infantum and in the experiment with Plasmodium falciparum was inactive. The pIC50 in experiment [1] and in [4] was less than 4.19 throughout. The pKi in experiment [2] was 8.21; in experiment [6] it was 7.62; in [7] it was 8.05.
`COc1cccc2c(CN3C[C@H](O)[C@H](O)[C@H]3CO)c[nH]c12`: the outcome with Trypanosoma cruzi, in the experiment with Leishmania infantum and in the experiment on Plasmodium falciparum was inactive. In addition, the pIC50 in [1] was less than 4.19. In addition, the pKi in [2] is 5.64; in experiment [3], less than 3.40.
For `OC[C@@H]1[C@@H](O)[C@@H](O)CN1Cc1cccc2cccnc12`, the outcome in the experiment on Trypanosoma cruzi, in the experiment with Leishmania infantum and in the experiment on Plasmodium falciparum was inactive. For the same compound, the pIC50 in experiment [1] and in experiment [4] was less than 4.19 in each case. For the same compound, the pKi in experiment [2] was 7.96; in experiment [6], 6.35; in experiment [7], 4.96; in experiment [3], less than 3.00.
For `Nc1ncnc2c(C3N[C@H](CO)[C@@H](O)[C@H]3O)c[nH]c12` (some centres not stated) [IMMUCILLIN A], the result in the experiment on Trypanosoma cruzi, with Leishmania infantum and in the experiment on Plasmodium falciparum was inactive. Besides, the pIC50 in experiment [1] and in [4] was less than 4.19 each time. Besides, the pKi in [2] was 8.21; in experiment [6], 9.05; in [7], 8.36; in [3], less than 5.00.
`Nc1ncnc2c(CN3C[C@H](O)[C@H](O)[C@H]3CO)c[nH]c12`: the pIC50 is 6.59 in experiment [8], 6.31 in [1] and less than 4.19 in experiment [4]. Besides, the Activity in experiment [9] and in [16] was 75% in each case. Further, the result (with Trypanosoma cruzi; with Leishmania infantum; in experiment [12]; in the experiment with Plasmodium falciparum) was inactive. For the same compound, the result in experiment [10], in [11], in experiment [14], in experiment [15], in experiment [17] and in [19] was Active. The pKi in experiment [5] is 3.44; in experiment [13], 5.09; in experiment [2], 8.39; in experiment [6], 7.74; in [7], 4.49; in experiment [18], 3.23. In addition, the pKi in experiment [3] was 4.65.
Turning to `OC[C@@H]1[C@@H](O)[C@@H](O)CN1Cc1cccc2c(Cl)ccnc12`, the result in the experiment with Trypanosoma cruzi, in the experiment on Leishmania infantum and in the experiment on Plasmodium falciparum was inactive. Also, the negative logarithm of the IC50 (pIC50) in experiment [1] is 4.60. Also, the pKi in experiment [2] was 7.85; in [3], less than 3.00.
In the case of `OC[C@@H]1[C@@H](O)[C@@H](O)CN1Cc1c[nH]c2c(O)ncnc12`, the outcome in the experiment on Trypanosoma cruzi, in the experiment on Leishmania infantum and in the experiment on Plasmodium falciparum was inactive. For the same compound, the pKi in experiment [5] is less than 3.00; in [2] it was 8.36; in [6], 7.52; in [7], 3.86; in experiment [3] it was 8.24. In addition, the pIC50 in [1] and in experiment [4] was less than 4.19 each time.
As for `Nc1ncnc2c(CN3C[C@H](O)[C@H](O)[C@H]3CO)csc12`, the outcome in the experiment with Trypanosoma cruzi, in the experiment with Leishmania infantum and with Plasmodium falciparum was inactive. Moreover, the negative-log Ki (pKi) in experiment [5] was 3.27; in experiment [13] it was 3.90; in experiment [2], 7.72; in experiment [6] it was 7.25; in [7], 4.51; in experiment [3] it was 3.00. Besides, the pIC50 in experiment [1] and in experiment [4] was less than 4.19 each time.
Take `OC[C@H]1NC[C@H](O)[C@@H]1O` [IMINORIBITOL]: the outcome in the experiment on Trypanosoma cruzi, in the experiment with Leishmania infantum and with Plasmodium falciparum was inactive. For the same compound, the pIC50 in experiment [1] is less than 4.19. In [2], this compound had a pKi of 5.22.

The term pIC50 denotes the negative decadic logarithm of the IC50, by convention in mol/L. For orientation: pKi means the Ki on a negative log10 scale, so that one unit is a factor of ten. Lower therefore signals a large Ki.

The record behind these values is ChEMBL document CHEMBL1255445, “Evaluation of nucleoside hydrolase inhibitors for treatment of African trypanosomiasis” (Antimicrob Agents Chemother, 2010).
